Test results from publication PMC6135860 (Neuropsychopharmacology, 2018).
Like-named read-outs stand apart in the source and are kept apart here.

How the values were obtained:
[1] = test system: humanized PDE4D mice; test: Scopolamine-induced memory impairment in novel object recognition, 1 h inter-trial interval; format: in vivo, mouse
Experimental: The novel object recognition test was performed as described elsewhere. […] The duration each animal spent exploring the objects was recorded. Time spent exploring the identical objects in T1 was recorded as a1 and a2; time spent exploring the familiar and the novel objects in T2 was recorded as “a” and “b”, respectively. The following variables were calculated: e1 = a1 + a2, e2 = a + b, the relative discrimination index d2 = (b–a)/e2.
For the scopolamine-induced memory impairment models, a single dose of scopolamine (0.1 mg/kg, IP) was administered 30 min before the training session of the NOR. Animals treated with H-89 or vehicle were implanted with 26-gauge guide cannula unilaterally (AP −0.2 mm from Bregma, ML +1 mm from the midline, DV−2mm from skull surface) and rested for a week before any tests.
Novel object recognition. Mice were handled for 3-5 min for 5 days in a row. The novel object recognition test was performed in a Plexiglas open field box (L30 cm, W50 cm, H40 cm) as described elsewhere^64,65. Briefly, the task procedure consists of three phases: habituation, training (T1), and testing (T2). In the habituation phase (day 1), each animal is allowed to freely explore the apparatus for 10 min; then the animal is returned to its home cage. During the training phase (day 2), a single animal is placed in the center of the open field containing two identical objects located on the diagonal of the field, and allowed to explore for 5 min. After a retention interval after T1 of 24 h (long-term recall) or 1 h (scopolamine-impairment model), the animal was subjected to the T2 testing phase for 5 min, during which one familiar object and one novel object were presented. […] The duration each animal spent exploring the objects was recorded. Time spent exploring the identical objects in T1 was recorded as a1 and a2; time spent exploring the familiar and the novel objects in T2 was recorded as ‘a’ and ‘b’, respectively. The following variables were calculated: e1 = a1 + a2, e2 = a + b, the relative discrimination index d2 = (b – a)/e2.

[2] = test system: brain cAMP, wild-type mice; test: Brain cAMP ELISA after oral dosing; format: in vivo, mouse
Experimental: (§1) On the day of assay, frozen brain samples were analyzed using the cAMP complete ELISA kit (Enzo Life Sciences, Farmingdale, NY) according to the assay protocol.
(§2) Concentrations of cAMP in mouse brain samples were measured using an enzyme-linked immunosorbent assay (ELISA). The mice were treated with various doses of BPN-14770 or vehicle. 1 h after dosing, mice were killed by rapid decapitation, and brains were immediately were dissected on ice, flash frozen in liquid nitrogen, and stored at -80 ̊C. On the day of assay, brain samples (one hemisphere) were ground to a fine powder under liquid nitrogen in a stainless steel mortar, followed by addition of 10 volumes of 0.1 M HCl. Tissue homogenates were then centrifuged at 800ˣg for 15 min. Supernatants were collected for immediate assay or stored frozen for assay later using the cAMP complete ELISA kit (Enzo Life Sciences, Farmingdale, NY) according to the assay protocol ^66.

[3] = test system: brain cAMP, humanized PDE4D mice; test: Brain cAMP ELISA after oral dosing; format: in vivo, mouse
Experimental: as §1, §2

[4] = test system: ICR mice; test: Anxiolytic-like effect models (marble burying, elevated-plus maze); format: in vivo, mouse; settings: Supplementary Figure S4
Text: Data are presented as mean ± S.E.M. (n = 10 male mice); * p < 0.05 and *** p < 0.001 (Student’s t-test) versus vehicle-treated group.

[5] = target: T1, mouse PDE4B3 dimer S133D(PKA) (Mus musculus, UniProt Q8VBU5, S118D); test: PDE4 kinetic cAMP hydrolysis coupled-enzyme assay; format: biochemical
T1 construct: hexahistidine; Proteos Inc; host or cells: Baculovirus-infected Sf9 insect cells
T1 sequence (Q8VBU5 1-721 S118D): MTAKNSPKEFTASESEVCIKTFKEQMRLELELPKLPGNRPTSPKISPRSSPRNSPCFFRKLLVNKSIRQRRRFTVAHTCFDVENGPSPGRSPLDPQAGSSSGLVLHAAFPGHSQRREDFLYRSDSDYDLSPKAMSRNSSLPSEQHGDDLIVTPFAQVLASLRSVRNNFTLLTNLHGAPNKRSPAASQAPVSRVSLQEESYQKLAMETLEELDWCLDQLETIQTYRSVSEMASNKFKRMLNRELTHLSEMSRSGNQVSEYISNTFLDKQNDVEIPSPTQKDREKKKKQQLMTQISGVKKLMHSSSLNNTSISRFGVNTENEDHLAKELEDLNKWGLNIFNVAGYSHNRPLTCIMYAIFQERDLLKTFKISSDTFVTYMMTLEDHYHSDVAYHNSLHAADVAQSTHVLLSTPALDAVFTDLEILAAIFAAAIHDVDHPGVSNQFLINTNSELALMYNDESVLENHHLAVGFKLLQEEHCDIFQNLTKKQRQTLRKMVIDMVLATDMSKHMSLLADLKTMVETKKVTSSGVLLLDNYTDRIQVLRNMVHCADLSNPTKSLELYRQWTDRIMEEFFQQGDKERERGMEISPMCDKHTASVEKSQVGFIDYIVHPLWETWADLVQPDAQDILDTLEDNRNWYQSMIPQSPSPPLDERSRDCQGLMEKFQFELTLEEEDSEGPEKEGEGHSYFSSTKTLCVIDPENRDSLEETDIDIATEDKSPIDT
Experimental: Kinetic assay of cAMP hydrolysis by purified PDE4 enzymes is measured by coupling the formation of the PDE4 reaction product 5′-adenosine monophosphate (AMP) to the oxidation of reduced nicotinamide adenine dinucleotide (NADH). This is accomplished with three coupling enzymes (yeast myokinase, pyruvate kinase, and lactate dehydrogenase), and allows fluorescent determination of reaction rates [19]. To measure inhibition of PDE4 enzymes by test compounds, data were percent normalized relative to controls and are presented as percent inhibition.
Kinetic assay of cAMP hydrolysis by purified PDE4 enzymes is measured by coupling the formation of the PDE4 reaction product 5′-adenosine monophosphate (AMP) to the oxidation of reduced nicotinamide adenine dinucleotide (NADH). This is accomplished with three coupling enzymes (yeast myokinase, pyruvate kinase, and lactate dehydrogenase), and allows fluorescent determination of reaction rates.^19 Assays were performed in 96-well plates in a total volume of 200 μl/well. Compounds were dissolved in dimethylsulfoxide (DMSO) and added to plates in a volume of 10 μl followed by addition of 165 μl of assay mix. Plates were pre-incubated at 25 °C for 10 min. The enzyme reaction was initiated by the addition of 25 μl of cAMP followed by thorough mixing. […] Initial rates (slopes) were determined from linear portions of the progress curves. […]

[6] = test system: wild-type mice; test: Y-maze spontaneous alternation test; format: in vivo, mouse; settings: oral gavage 1 h prior to test
Experimental: (§3) The test consists of a single 5 min trial, in which the mouse was allowed to explore all three arms of the Y-maze [31]. Spontaneous alternation (%) was defined as consecutive entries in three different arms, divided by the number of possible alternations (total arm entries minus 2).
(§4) Y-maze spontaneous alternation test. The Y-maze apparatus made of matt blue Plexiglas had three identical arms (L 40 cm, W 5 cm, H 15 cm) placed at 120° from each other. The test consisted of a single 5 min trial, in which the mouse was allowed to explore all three arms of the Y-maze. The start arm was varied between animals to avoid placement bias. Spontaneous Alternation (%) was defined as consecutive entries in 3 different arms, divided by the number of possible alternations (total arm entries minus 2). Mice with less than 8 arm entries during the 5-min trial were excluded from the analysis.

[7] = test system: humanized PDE4D mice; test: Novel object recognition, 24 h inter-trial interval; format: in vivo, mouse
Experimental: The novel object recognition test was performed as described elsewhere [32, 33]. Briefly, the task procedure consists of three phases: habituation phase on day 1 for 10 min, training (T1) phase on day 2 for 5 min, and testing (T2) phase on day 3 for 5 min. The duration each animal spent exploring the objects was recorded. Time spent exploring the identical objects in T1 was recorded as a1 and a2; time spent exploring the familiar and the novel objects in T2 was recorded as “a” and “b”, respectively. The following variables were calculated: e1 = a1 + a2, e2 = a + b, the relative discrimination index d2 = (b–a)/e2.
Novel object recognition. Mice were handled for 3-5 min for 5 days in a row. The novel object recognition test was performed in a Plexiglas open field box (L30 cm, W50 cm, H40 cm) as described elsewhere^64,65. Briefly, the task procedure consists of three phases: habituation, training (T1), and testing (T2). In the habituation phase (day 1), each animal is allowed to freely explore the apparatus for 10 min; then the animal is returned to its home cage. During the training phase (day 2), a single animal is placed in the center of the open field containing two identical objects located on the diagonal of the field, and allowed to explore for 5 min. After a retention interval after T1 of 24 h (long-term recall) or 1 h (scopolamine-impairment model), the animal was subjected to the T2 testing phase for 5 min, during which one familiar object and one novel object were presented. The arena and objects were thoroughly wiped with 70% ethanol after each trial to avoid the presence of any olfactory cues. The animals were considered to be exploring the object when directing their nose to the object at a distance of no more than 2 cm and/or touching or sniffing the object. The duration each animal spent exploring the objects was recorded. Time spent exploring the identical objects in T1 was recorded as a1 and a2; time spent exploring the familiar and the novel objects in T2 was recorded as ‘a’ and ‘b’, respectively. The following variables were calculated: e1 = a1 + a2, e2 = a + b, the relative discrimination index d2 = (b – a)/e2.

[8] = target: PDE4 binding sites in wild-type mouse brain membranes; test: [3H]-rolipram radioligand binding to brain membranes; settings: wild-type
Experimental: (§5) Mice were killed by decapitation, and the brains were immediately dissected on ice and homogenized in binding buffer using a Polytron homogenizer (Brinkman Instruments, Westbury, NY). The membrane fraction of the homogenate was obtained by centrifugation at 15,000 × g for 15 min, and resuspension of the pellet in the binding buffer.
(§6) Mice were killed by decapitation, and the brains were immediately dissected on ice and homogenized in binding buffer (50 mM Tris-HCl, 5 mM MgCl2, pH 7.5) using a Polytron homogenizer (Brinkman Instruments, Westbury, NY). The membrane fraction of the homogenate was obtained by centrifugation at 15,000 g for 15 min, and resuspension of the pellet in the binding buffer^29.
(§7) At the end of the incubation, reactions were stopped by adding 5 ml of the ice-cold binding buffer and rapid vacuum filtration through glass fiber filters that had been soaked in 0.3% polyethyleneimine. The filters were then washed twice with 5 ml of the ice-cold binding buffer, and discs of filter paper were collected for measurement of radioactivity by liquid scintillation counting.

[9] = target: PDE4 binding sites in humanized PDE4D mouse brain membranes; test: as above
Experimental: as §5, §6, §7

[10] = test system: humanized PDE4D mice; test: Y-maze spontaneous alternation test; format: in vivo, mouse; settings: humanized PDE4D mice, oral gavage 1 h prior to test
Experimental: as §3, §4

[11] = Pharmacokinetics and plasma exposure in mice

O=C(O)Cc1ccc(Cc2cc(-c3cccc(Cl)c3)nc(C(F)(F)F)c2)cc1 [BPN14770]
MED for reversal of scopolamine memory deficit ([1]; acute administration 30 min prior to scopolamine, NOR 1 h inter-trial interval): 0.03 mg/kg | memory benefit in the scopolamine impairment model with repeated dosing ([1]; repeated treatment for 14 days): maintained with repeated dosing | effect on brain cAMP ([2]; 0.3 mg/kg PO): ineffective | minimum effective dose (MED) for increase in brain cAMP ([2]; 1 h after oral dose): 1 mg/kg PO | increase in brain cAMP ([3]; humanized PDE4D mice, 0.3 mg/kg PO): almost three-fold | minimum effective dose (MED) for increase in brain cAMP ([3]; humanized mice, 1 h after oral dose): 0.1 mg/kg PO | anxiolytic-like effect [4]: ineffective | IC50 [5]: 2120 ± 527 nM | MED for improved % alternation in Y-maze [6]: 1 mg/kg | dose range for effect on neurochemical and cognitive biomarkers ([7]; humanized PDE4D mice): 0.01–0.03 mg/kg PO | greater potency for improving memory in humanized vs wild-type mice ([7]; memory tests overall): 100 fold | Ki ([8]; inhibition of 2 nM [3H]-rolipram binding, read-out: One-site Ki): 124 ± 14.1 nM | Ki ([8]; inhibition of [3H]-rolipram binding, read-out: Two-site Ki1): 79.7 ± 17.1 nM | Ki ([8]; inhibition of [3H]-rolipram binding, read-out: Two-site Ki2): 622 ± 110 nM | Ki ([9]; hPDE4D, inhibition of [3H]-rolipram binding, read-out: Two-site Ki1): 2.8 ± 1.08 nM | Ki ([9]; hPDE4D, inhibition of [3H]-rolipram binding, read-out: Two-site Ki2): 186 ± 19 nM | Ki ([9]; read-out: One-site Ki): 82.1 ± 6.03 nM | MED for improved % alternation in Y-maze [10]: 0.01 mg/kg | plasma exposure at the NOAEL ([11]; 1 mg/kg PO, 1 h post dose, data not shown): 1305 ± 113 ng/mL | Kp ([11]; C57bl/6, mouse, brain and plasma): 0.4 to 0.42 | bioavailability ([11]; C57bl/6, mouse, in vivo, po): 70 to 80% | half-life ([11]; C57bl/6, mouse, plasma and brain): 8 to 10 h
